Data taken from patent US20170176446A1, “Methods for Determining the Oncogenic Condition of Cell, Uses Thereof, and Methods for Treating Cancer” (INSERM (INSTITUT NATIONAL DE LA SANTE ET DE LA RECHERCHE …, priority 2009, published 2017).

Key:
MCF7 cells = assay: OCDO production by MCF7 cells incubated with [14C]CE, thin-layer chromatography; format: cell-based, human
How it was run: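 MCF7 cells incubated with [14C]CE; lipids extracted, separated by silica TLC in ethyl acetate and quantified by phosphorimager densitometry. OCDO inhibition came from oxysterol proportions, OCDO over CEE+CE+CT+OCDO.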

TS/A cells = assay: Tumor size of TS/A tumors implanted in BALB/c mice, intratumoral treatment; format: in vivo; conditions: PBPE 40 μM, 100 μl intratumorally once a day
Description: A cell culture of TS/A cells was first performed. These TS/A cells are mouse mammary adenocarcinomas (see Nanni P et al., Clin. Exp. Metastasis, 1983 October-December; 1(4): 373-80). The cells are cultured, at 37° C. under 5% CO2, in a DMEM medium supplemented with 2 g/liter of sodium carbonate, 1.2 mM of glutamine (pH 7.4 at 23° C.), 5% of fetal bovine serum (Gibco) and 2.5 ml of antibiotics per liter of medium (penicillin/streptomycin).
The TS/A cells are recovered with trypsin, washed twice and suspended in PBS buffer. The TS/A cells (approximately 4×10^6 […] cells/0.1 ml) are then injected subcutaneously into the flank of 6-week-old female BALB/c mice (supplied by Charles River). […] The animals (10 mice per group) are monitored regularly for tumor development. The volume of the tumors is calculated according to the following formula: L×l^2×0.5 (L is the length and l is the width of the tumor). The experiment was reproduced twice. The results are given in FIG. 18 (the arrow indicates the beginning of the treatment).

[1] = MCF7 cells, [14C]CEα, three days, concentration given with each compound, share of labeled oxysterols

c1ccc(Cc2ccc(OCCN3CCCC3)cc2)cc1 [PBPE, N,N-pyrrolidino-[(4-benzyl)phenoxy]ethanamine]
inhibition at 40 µM (MCF7 cells; Homo sapiens, MCF7, MCF-7, 40 μM PBPE, 48 hours): 100% | % CE (MCF7 cells; [1]): 89.2% | % CT (MCF7 cells; [1]): 4.6% | % OCDO (MCF7 cells; [1]): 6.2% | OCDO production by MCF-7 (% control) (MCF7 cells; concentration in μM in parentheses after each molecule, control = 100): <1 % control | Tumor size (% control) (TS/A cells; Day 28): 71.6 ± 7 % control | Tumor size (% control) (TS/A cells; Day 37): 54.5 ± 8 % control
